Measured values as given in ChEMBL document CHEMBL4602605, “Fluoroquinolones structural and medicinal developments (2013-2018): Where are we now?” (Bioorg Med Chem, 2019).
≈ marks a conversion by molar mass, not a printed value.

Assays:
Assay type in all cases: functional
[1] = system: Mycobacterium tuberculosis; assay: Antimicrobial activity against Mycobacterium tuberculosis H37Rv ATCC 27294 incubated for 7 days by microplate Alamar blue assay; conditions: H37Rv ATCC 27294, 168 h
[2] = system: Staphylococcus epidermidis; assay: Antimicrobial activity against methicillin-susceptible Staphylococcus epidermidis ATCC 12228 incubated for 18 to 24 hrs by two-fold serial dilution method
Staphylococcus aureus [3] = assay: Antimicrobial activity against methicillin-susceptible Staphylococcus aureus ATCC 29213 incubated for 18 to 24 hrs by two-fold serial dilution method
Staphylococcus aureus [4] = assay: Antimicrobial activity against methicillin-resistant Staphylococcus aureus ATCC 33591 incubated for 18 to 24 hrs by two-fold serial dilution method
Enterococcus faecium = assay: Antimicrobial activity against Enterococcus faecium ATCC 700221 incubated for 18 to 24 hrs by two-fold serial dilution method
Pseudomonas aeruginosa = assay: Antimicrobial activity against Pseudomonas aeruginosa PAO1 by CLSI-based broth microdilution method
Escherichia coli = assay: Antimicrobial activity against tolC deficient Escherichia coli KD65 by CLSI-based broth microdilution method; conditions: Escherichia coli, KD65; read-out: MIC
Staphylococcus aureus [5] = assay: Antimicrobial activity against Staphylococcus aureus ATCC 29213 by CLSI-based broth microdilution method; conditions: Staphylococcus aureus, ATCC 29213; read-out: MIC

Compound | MIC [1] [µM] | MIC [2] [µg/mL] | MIC (Staphylococcus aureus [3]) [µg/mL] | MIC (Staphylococcus aureus [4]) [µg/mL] | MIC (Enterococcus faecium) [µg/mL] | MIC (Pseudomonas aeruginosa) [µg/mL] | MIC (Escherichia coli) [µg/mL] | MIC (Staphylococcus aureus [5]) [µg/mL]
COc1c(N2CCN(C/C(C)=N/Nc3ccc(Cl)cc3)CC2)c(F)cc2c(=O)c(C(=O)O)cn(C3CC3)c12 | 0.433 (≈ 0.235 µg/mL) | 0.125 (≈ 0.231 µM) | 0.06 (≈ 0.111 µM) | 0.06 (≈ 0.111 µM) | 64 (≈ 118 µM) |  |  | 
O=C(O)c1cn(C2CC2)c2c3c(c(F)cc2c1=O)N1CCCC1CCO3 (configuration not stated) |  |  |  |  |  | 21 (≈ 58.6 µM) | 0.008 (≈ 0.0223 µM) | 0.21 (≈ 0.586 µM)
N[C@@H]1CCN2c3c(F)cc4c(=O)c(C(=O)O)cn(C5CC5)c4c3C=C[C@H]12 |  |  |  |  |  | > 64 | 1 (≈ 2.81 µM) | 8 (≈ 22.5 µM)
COc1c(N2CCN(C/C(C)=N/Nc3nc4ccccc4s3)CC2)c(F)cc2c(=O)c(C(=O)O)cn(C3CC3)c12 | 0.313 (≈ 0.177 µg/mL) | 0.5 (≈ 0.886 µM) | 0.25 (≈ 0.443 µM) | 0.5 (≈ 0.886 µM) | 64 (≈ 113 µM) |  |  | 
O=C(O)c1cn(C2CC2)c2c3c(c(F)cc2c1=O)N1CCCC1CS(=O)(=O)C3 (configuration not stated) |  |  |  |  |  | > 64 | 0.25 (≈ 0.615 µM) | 1 (≈ 2.46 µM)
COc1c(N2CCN(C/C(C)=N/Nc3nc4ccccc4[nH]3)CC2)c(F)cc2c(=O)c(C(=O)O)cn(C3CC3)c12 | 0.434 (≈ 0.238 µg/mL) | 1 (≈ 1.83 µM) | 1 (≈ 1.83 µM) | 1 (≈ 1.83 µM) | 128 (≈ 234 µM) |  |  | 
N[C@H]1C[C@H]2CCOc3c(c(F)cc4c(=O)c(C(=O)O)cn(C5CC5)c34)N2C1 |  |  |  |  |  | 0.093 (≈ 0.249 µM) | 0.004 (≈ 0.0107 µM) | 0.015 (≈ 0.0402 µM)
COc1c(N2CCN(C/C(C)=N/Nc3ccnc4cc(Cl)ccc34)CC2)c(F)cc2c(=O)c(C(=O)O)cn(C3CC3)c12 | 0.266 (≈ 0.158 µg/mL) | 1 (≈ 1.69 µM) | 0.5 (≈ 0.843 µM) | 0.5 (≈ 0.843 µM) | > 128 |  |  | 
N[C@@H]1CCN2c3c(F)cc4c(=O)c(C(=O)O)cn(C5CC5)c4c3/C=C\CC[C@H]12 |  |  |  |  |  | 32 (≈ 83.5 µM) | 0.25 (≈ 0.652 µM) | 4 (≈ 10.4 µM)
N[C@@H]1C[C@H]2CCCc3c(c(F)cc4c(=O)c(C(=O)O)cn(C5CC5)c34)N2C1 |  |  |  |  |  | 32 (≈ 86.2 µM) | 8 (≈ 21.5 µM) | 8 (≈ 21.5 µM)
N[C@@H]1CCN2c3c(F)cc4c(=O)c(C(=O)O)cn(C5CC5)c4c3SC[C@H]12 |  |  |  |  |  | 4 (≈ 10.7 µM) | 0.03 (≈ 0.0799 µM) | 0.125 (≈ 0.333 µM)
O=C(O)c1cn(C2CC2)c2c3c(c(F)cc2c1=O)N1CCCC1C(=O)NC3 (configuration not stated) |  |  |  |  |  | > 64 | 8 (≈ 21.5 µM) | 16 (≈ 43.1 µM)
CC(=O)N1Cc2c(c(F)cc3c(=O)c(C(=O)O)cn(C4CC4)c23)N2CCCC2C1 (configuration not stated) |  |  |  |  |  | > 16 | 0.2 (≈ 0.501 µM) | 0.082 (≈ 0.205 µM)
O=C(O)c1cn(C2CC2)c2c3c(c(F)cc2c1=O)N1CCCC1COC3 (configuration not stated) |  |  |  |  |  | > 64 | 1 (≈ 2.79 µM) | 0.5 (≈ 1.4 µM)
COc1c(N2CCN(C/C(C)=N/Nc3ccc(C(F)(F)F)cc3)CC2)c(F)cc2c(=O)c(C(=O)O)cn(C3CC3)c12 | 0.394 (≈ 0.227 µg/mL) | 0.25 (≈ 0.434 µM) | 0.125 (≈ 0.217 µM) | 0.125 (≈ 0.217 µM) | 64 (≈ 111 µM) |  |  | 
N[C@@H]1CCN2c3c(F)cc4c(=O)c(C(=O)O)cn(C5CC5)c4c3COC[C@H]12 |  |  |  |  |  | 0.5 (≈ 1.34 µM) | 0.004 (≈ 0.0107 µM) | 2 (≈ 5.36 µM)
COc1c(N2CCN(C/C(C)=N/Nc3ccccc3)CC2)c(F)cc2c(=O)c(C(=O)O)cn(C3CC3)c12 | 0.398 (≈ 0.202 µg/mL) | 0.25 (≈ 0.493 µM) | 0.25 (≈ 0.493 µM) | 0.25 (≈ 0.493 µM) | 64 (≈ 126 µM) |  |  | 
COc1c(N2CCN(C/C(C)=N/Nc3ccccn3)CC2)c(F)cc2c(=O)c(C(=O)O)cn(C3CC3)c12 | 0.372 (≈ 0.189 µg/mL) | 0.125 (≈ 0.246 µM) | 0.125 (≈ 0.246 µM) | 0.125 (≈ 0.246 µM) | 64 (≈ 126 µM) |  |  | 
N[C@H]1CCN2c3c(F)cc4c(=O)c(C(=O)O)cn(C5CC5)c4c3CNC[C@H]12 |  |  |  |  |  | 0.5 (≈ 1.34 µM) | ≤ 0.06 | 1 (≈ 2.69 µM)
O=C(O)c1cn(C2CC2)c2c3c(c(F)cc2c1=O)N1CCCC1C/C(=N\O)C3 (configuration not stated) |  |  |  |  |  | > 16 | 0.03 (≈ 0.0778 µM) | 0.125 (≈ 0.324 µM)
N[C@@H]1CCN2c3c(F)cc4c(=O)c(C(=O)O)cn(C5CC5)c4c3CC[C@H]12 |  |  |  |  |  | 0.5 (≈ 1.4 µM) | 0.004 (≈ 0.0112 µM) | 0.03 (≈ 0.0839 µM)
N[C@@H]1C[C@@H]2CCCc3c(c(F)cc4c(=O)c(C(=O)O)cn(C5CC5)c34)N2C1 |  |  |  |  |  | 1 (≈ 2.69 µM) | 0.25 (≈ 0.673 µM) | 0.25 (≈ 0.673 µM)
O=C(O)c1cn(C2CC2)c2c(cc(F)c3c2nnn3-c2ccc(F)cc2)c1=O |  |  |  |  |  | 40 (≈ 105 µM) | 0.25 (≈ 0.654 µM) | 0.06 (≈ 0.157 µM)
CN1Cc2c(c(F)cc3c(=O)c(C(=O)O)cn(C4CC4)c23)N2CCCC2C1 (configuration not stated) |  |  |  |  |  | > 64 | 2 (≈ 5.38 µM) | 32 (≈ 86.2 µM)
N[C@@H]1C[C@H]2COCc3c(c(F)cc4c(=O)c(C(=O)O)cn(C5CC5)c34)N2C1 |  |  |  |  |  | 0.25 (≈ 0.67 µM) | 0.008 (≈ 0.0214 µM) | 0.015 (≈ 0.0402 µM)
COc1cccc(N/N=C(\C)CN2CCN(c3c(F)cc4c(=O)c(C(=O)O)cn(C5CC5)c4c3OC)CC2)c1 | 0.434 (≈ 0.233 µg/mL) | 0.25 (≈ 0.465 µM) | 0.125 (≈ 0.233 µM) | 0.125 (≈ 0.233 µM) | > 64 |  |  | 
O=C(O)c1cn(C2CC2)c2c3c(c(F)cc2c1=O)N1CCCC1CN=C3 (configuration not stated) |  |  |  |  |  | 2 (≈ 5.63 µM) | 0.25 (≈ 0.703 µM) | 0.25 (≈ 0.703 µM)
